Reference: ChEMBL document CHEMBL1667766, “Synthesis of elastin based peptides conjugated to benzisoxazole as a new class of potent antimicrobials--A novel approach to enhance biocompatibility” (2011)
*1 amine or outer side, *2 acyl side, *3 side chain or, on linkers, in order; H or OH if unused. Where a SMILES comes first, the peptide text is derived from it. [ ]: non-standard residue; d: D form. The star is where a group is joined. X2 = CC(C)[C@H](N[*:1])C(=O)NC(=O)[*:2]; Boc = CC(C)(C)OC(=O)*; OcHex = C1CCC(O*)CC1

Columns and labels:
Assay type in all cases: functional
Escherichia coli = assay: Antimicrobial activity against Escherichia coli after 72 hrs by microdilution method
Xanthomonas oryzae = assay: Antimicrobial activity against Xanthomonas oryzae after 72 hrs by microdilution method
Klebsiella pneumoniae = assay: Antimicrobial activity against Klebsiella pneumoniae after 72 hrs by microdilution method
Staphylococcus = assay: Antimicrobial activity against coagulase positive Staphylococcus after 72 hrs by microdilution method
Aspergillus niger = assay: Antifungal activity against Aspergillus niger after 72 hrs by microdilution method
Aspergillus flavus = assay: Antifungal activity against Aspergillus flavus after 72 hrs by microdilution method
Fusarium oxysporum = assay: Antifungal activity against Fusarium oxysporum after 72 hrs by microdilution method

Measured: MIC

CC(C)(C)OC(=O)N[C@@H](Cc1ccccc1)C(=O)O
> 50 µg/mL: Escherichia coli | Xanthomonas oryzae | Klebsiella pneumoniae | Staphylococcus | Aspergillus niger | Aspergillus flavus | Fusarium oxysporum

CC[C@@H](C)[C@H](NC(=O)CNC(=O)CNC(=O)OC(C)(C)C)C(=O)N1CCC[C@H]1C(=O)O
> 50 µg/mL: Escherichia coli | Xanthomonas oryzae | Klebsiella pneumoniae | Staphylococcus | Aspergillus niger | Aspergillus flavus | Fusarium oxysporum

CC(C)(C)OC(=O)N[C@@H](Cc1c[nH]c2ccccc12)C(=O)O
> 50 µg/mL: Escherichia coli | Xanthomonas oryzae | Klebsiella pneumoniae | Staphylococcus | Aspergillus niger | Aspergillus flavus | Fusarium oxysporum

CC(C)[C@H](NC(=O)CNC(=O)[C@@H]1CCCN1C(=O)[C@H](Cc1ccccc1)NC(=O)CNC(=O)[C@H](CCC(=O)OC1CCCCC1)NC(=O)CNC(=O)OC(C)(C)C)C(=O)NCC(=O)N[C@H](C(=O)N1CCC[C@H]1C(=O)NCC(=O)N[C@H](C(=O)NCC(=O)N[C@H](C(=O)N1CCC[C@H]1C(=O)NCC(=O)N[C@H](C(=O)NCC(=O)N[C@H](C(=O)N1CCC[C@H]1C(=O)NCC(=O)N[C@@H](Cc1ccccc1)C(=O)NCC(=O)N[C@@H](Cc1ccccc1)C(=O)N1CCC[C@H]1C(=O)NCC(=O)N[C@@H](Cc1ccccc1)C(=O)NCC(=O)N[C@@H](Cc1ccccc1)C(=O)N1CCC[C@H]1C(=O)O)C(C)C)C(C)C)C(C)C)C(C)C)C(C)C (Boc-GE(OcHex)GFPGVGVPGVGVPGVGVPGFGFPGFGFP-OH)
> 50 µg/mL: Escherichia coli | Xanthomonas oryzae | Klebsiella pneumoniae | Staphylococcus | Aspergillus niger | Aspergillus flavus | Fusarium oxysporum

CC(C)[C@H](NC(=O)CNC(=O)[C@@H]1CCCN1C(=O)[C@H](Cc1ccccc1)NC(=O)CNC(=O)[C@H](Cc1ccccc1)NC(=O)CNC(=O)[C@@H]1CCCN1C(=O)[C@H](Cc1ccccc1)NC(=O)CNC(=O)[C@@H](NC(=O)CNC(=O)[C@@H]1CCCN1C(=O)[C@@H](NC(=O)NC(=O)[C@@H](NC(=O)CNC(=O)[C@@H]1CCCN1C(=O)[C@H](Cc1ccccc1)NC(=O)CNC(=O)[C@H](CCC(=O)OC1CCCCC1)NC(=O)CNC(=O)OC(C)(C)C)C(C)C)C(C)C)C(C)C)C(=O)NCC(=O)N[C@H](C(=O)N1CCC[C@H]1C(=O)NCC(=O)N[C@H](C(=O)NCC(=O)N[C@@H](Cc1ccccc1)C(=O)N1CCC[C@H]1C(=O)O)C(C)C)C(C)C (Boc-GE(OcHex)GFPG[X2]VPGVGFPGFGFPGVGVPGVGFP-OH)
> 50 µg/mL: Escherichia coli | Xanthomonas oryzae | Klebsiella pneumoniae | Staphylococcus | Aspergillus niger | Aspergillus flavus | Fusarium oxysporum

CC(C)(C)OC(=O)NCC(=O)N[C@@H](Cc1ccccc1)C(=O)NCC(=O)N[C@@H](Cc1ccccc1)C(=O)N1CCC[C@H]1C(=O)O (Boc-GFGFP-OH)
> 50 µg/mL: Escherichia coli | Xanthomonas oryzae | Klebsiella pneumoniae | Staphylococcus | Aspergillus niger | Aspergillus flavus | Fusarium oxysporum

C[C@H](NC(=O)CNC(=O)CNC(=O)OC(C)(C)C)C(=O)N1CCC[C@H]1C(=O)O (Boc-GGAP-OH)
> 50 µg/mL: Escherichia coli | Xanthomonas oryzae | Klebsiella pneumoniae | Staphylococcus | Aspergillus niger | Aspergillus flavus | Fusarium oxysporum
